Assay results published in US9522163B2, “Methods of treating hepatitis” (priority 2002, dated 2016).

Legend:
iNOS = iNOS promoter luciferase reporter assay in hepatocytes; format: cell-based; conditions: BAY 11-7082 10 μM 1 hr prior to CO
Experimental: In some experiments, gene transfer of an IκBα superrepressor (Hellerbrand et al., Hepatology 27:1285-1295 (1998)) or β-galactosidase using adenoviral vectors (10 pfu/cell) was performed 12 hours prior to TNF-α/ActD treatment. NF-κB activation was evaluated using a luciferase reporter assay as described in Chow et al. (J. Biol. Chem. 274: 10689-10692 (1999)). Briefly, hepatocytes were co-transfected with NF-κB reporter constructs (pGL3-kappaβ luciferase, 100 ng/well; and pIEP-Lac-z 0.5 μg/well) using Lipofectin™ (Invitrogen, Carlsbad, Calif.) as instructed by the manufacturer. Evaluation of iNOS expression was performed using a luciferase reporter assay as described in Lowenstein et al. (Proc. Natl. Acad. Sci. U.S.A 90: 9730-9734 (1993)). Briefly, hepatocytes were co-transfected with iNOS promoter reporter constructs (pXP2; 1 μg/well) and pIEP-LacZ (0.5 μg/well) as described above.
Hepatocytes were transfected with plasmids as described above and treated with various stimuli 24 hours after transfection. Luciferase activity (reported as arbitrary units; A.U.) was assayed 6 hours after initiation of treatment, using a luciferase assay kit (Promega, Madison, Wis.) and a Berthold Luminometer. Results were corrected for transfection efficiency and protein concentration. […]

[1] = tested on: mouse primary hepatocytes; assay: TNF-α/ActD-induced cell death, crystal violet viability; format: cell-based; conditions: BAY 11-7082 (10 μM) to inhibit NF-κB activation
[2] = tested on: TNF-α/D-gal-induced liver injury
Experimental: Male C57BL/6J ([…], Bar Harbor, Me.), 8-12-wk-old inos^−/− mice and wild type littermates (bred/maintained at the University of Pittsburgh) were used for in vivo experiments.
10 mg/kg subcutaneously (s.c.), Alexis Biochem., San Diego, Calif.) or cobalt protoporphyrin (CoPP, 5 mg/kg, intraperitoneally (i.p.), Frontier Scientific, Logan, Utah). […] Where indicated, acetaminophen (Sigma Chem. Co.; St Louis, Mo.) was administered (500 mg/kg, i.p.).
A CO analyzer (Interscan, Chatsworth, Calif.) was used to measure CO levels continuously in the chamber. CO concentrations were maintained at 250 ppm at all times. Mice were placed in the exposure chamber as required.
Whether HO-1 is protective against acute hepatic failure was investigated. Cobalt protoporphyrin (5 mg/kg, i.p.) was administered to male C57BL/6J mice. Twenty-four hours later, TNF-α/D-gal (0.3 μg/8 mg/mouse, i.p., respectively) was administered to the mice. Serum alanine aminotransferase (ALT) levels in the mice were measured 8 hours after administration of TNF-α/D-gal.
After receiving TNF-α/D-gal, mice were returned to the CO exposure chamber and their serum was analyzed for ALT levels 6-8 hr later.
To generate the data presented in FIGS. 11A-11H, liver samples from mice treated with TNF-α/D-gal in the presence and absence of CO (250 ppm) for 8 hr were sectioned and stained for hematoxylin & eosin (H&E), activated caspase 3 (as indicated by an increase in red intensity), and for TUNEL positive cells (as demarcated by the increased green cellular staining; a marker of cell death). Nuclei stained blue.
L-NIL was administered 2 hr prior to CO. CO-treated animals were then pre-treated (250 ppm) for 1 hr prior to TNF-α/D-gal.
VP was selectively designed to deliver NO directly to the liver. One hour after the initial VP dose, the animals were exposed to CO for 1 hr prior to administration of TNF-α/D-gal (see above). Serum ALT levels were determined 6-8 hr later.
These mice and inos^−/− mice were then administered CoPP. L-NIL was maintained in the water throughout the experiment. Control and inos^−/− mice received normal drinking water. Twenty-four hr after administration of CoPP, TNF-α/D-gal was administered and serum ALT determined 6-8 hr later.

HO-1 = assay: Liver HO-1 expression (immunoblot); format: in vivo, mice; conditions: L-NIL 5 mg/kg i.p., room air
Experimental: Western blot analysis was performed on primary hepatocytes in culture or from liver homogenates with antibodies to iNOS (Transduction Laboratories, Lexington, Ky.; 1:1000), HO-1 (Calbiochem; 1:2000), or β-actin (Sigma Chemical; 1:5000). Thirty μg protein in cell culture experiments or 100 μg protein from liver homogenates was loaded per well for SDS-PAGE.
To assess the role of iNOS on TNF-α/D-gal-induced HO-1 expression in the liver (data presented in FIG. 16), mice were administered L-NIL (5 mg/kg, i.p.) 2 hr prior to pre-treatment with CO (250 ppm) and every 2 hr thereafter. Control mice received L-NIL and remained in room air.

[3] = tested on: mouse primary hepatocytes; assay: TNF-α/ActD-induced cell death, crystal violet viability; format: cell-based
Experimental: Mouse primary hepatocytes were harvested from C57BL/6J, mkk3^−/−, inos^−/− (in-house breeding colony), or hmox-1^−/− mice as described in Kim et al. (J. Biol. Chem. 272: 1402-1411 (1997)). Hepatocytes were used on days 1-3 following harvest.
Cells were treated with TNF-α (10 ng/ml) and actinomycin-D (Act-D; 200 ng/ml, Sigma Chemical Co. St. Louis, Mo.) to induce cell death.
Whether exogenous CO is protective against hepatocyte cell death in vitro was investigated. To generate the data presented in FIG. 2, mouse hepatocytes were pre-incubated with CO (250 ppm) for 1 hr (standard pre-treatment time for all experiments) prior to addition of TNF-α/Act-D (10 ng/200 ng/ml respectively). Cells were maintained in CO for the duration of the experiment. Twelve hours afterward, cell viability was measured as described in Kim et al. (J. Biol. Chem. 272: 1402-1411 (1997)). Adenoviral experiments involved incubating hepatocytes overnight with 10 pfu/cell of the adenovirus prior to addition of TNF-α/ActD, and then assaying for viability using crystal violet. The roles of signaling molecules guanylyl cyclase and p38 MAPK were also investigated in this model. To evaluate the role of cGMP and confirm the role of NF-κB, hepatocytes were treated separately with the soluble guanylate cyclase (sGC) inhibitor 1H-[1,2,4]Oxadiazolo[4,3-a]quinoxalin-1-one (ODQ; Calbiochem; 2-10 μM) or the NF-κB inhibitor BAY 11-7082, (10 μM). Cells were treated with the inhibitors for 1 hour prior to the 1 hour pretreatment with CO. TNF-α/ActD was then added and the cells tested for viability 12 hours later. NF-κB activation was critical to the protection elicited by CO while cGMP was not involved.
To generate the data presented in FIG. 9, mouse hepatocytes were isolated from inos^−/− or from wild type C57BL/6J mice, which were then pre-treated for 1 hr with L-NIO (1 mM) to inhibit iNOS prior to CO administration. Those groups exposed to CO received a one-hour pretreatment prior to addition of TNF-α/ActD and were then returned to CO exposure.
To generate the data presented in FIG. 19, mouse hepatocytes were isolated from HO-1 null mice (hmox-1^−/−) and wild type (C57BL/6J) littermates, pretreated for 1 hour with CO (250 ppm), and treated with TNF-α/ActD. Viability was assayed as described above.
To generate the data presented in FIG. 20, mouse hepatocytes were isolated from HO-1 null mice (hmox-1^−/−) and wild type (C57BL/6J) littermates, pretreated with the NO donor SNAP (500 μM), and then treated with TNF-α/ActD 1 hour later.

[4] = SNAP 500 μM, 1 hour before TNF-α/ActD

How did the “iNOS luciferase reporter activity with NF-κB inhibitor” value (iNOS) turn out when `Cc1ccc(S(=O)(=O)/C=C/C#N)cc1` [BAY 11-7082, reference compound] was run?
The value was “decreased reporter activity”.

What about the “Effect on the protective effects of CO” value [1] of the same compound?
The value was “abrogated”.

What does the source list for `C=CC1=C(C)c2cc3[n-]c(cc4nc(cc5[n-]c(cc1n2)c(C)c5CCC(=O)[O-])C(CCC(=O)[O-])=C4C)c(C)c3C=C.[Co+2].[H+].[H+]` [CoPP, cobalt protoporphyrin]?
Liver injury as measured by serum ALT ([2]; 5 mg/kg i.p. 24 h before TNF-α/D-gal, ALT 8 hours after, C57BL/6J mice): prevented liver injury; Liver injury ([2]; CoPP with and without L-NIL (4.5 mM drinking water), TNF-α/D-gal 24 hours after CoPP): protected from liver injury; Reduction in serum ALT ([2]; inos−/− mice, CoPP 24 hr before TNF-α/D-gal, 6-8 hr later): > 50%

For `CC(=N)NCCCC[C@H](N)C(=O)O.Cl.Cl` [L-NIL, L-N6-(1-iminoethyl)-lysine-dihydrochloride, reference compound], which “Severity of liver injury, L-NIL alone” value ([2]; L-NIL 4.5 mM in drinking water, TNF-α/D-gal) is on record?
The value was “did not change the severity of injury”.

What about the “Liver HO-1 expression, L-NIL alone” value (HO-1) of the same compound?
Its value is “minimal effect”.

For `O=c1onc2cnc3ccccc3n12` [ODQ, 1H-[1,2,4]Oxadiazolo[4,3-a]quinoxalin-1-one, reference compound], which “Effect on protection provided by CO” value ([3]; ODQ 2-10 μM, 1 hour prior to CO pretreatment) is on record?
The value was “did not reverse the protection”.

Which results are given for `CC(=O)N[C@H](C(=O)O)C(C)(C)SN=O` [SNAP, s-nitroso-N-acetyl-penicillamine, reference compound]?
TNF-α/ActD-induced cell death, hmox-1−/− hepatocytes [3, 4]: did not provide significant protection; TNF-α/ActD-induced cell death, wild type hepatocytes [3, 4]: significantly protected against cell death

Which results are given for `C=Cc1c2[n-]c(c1C)/C=c1\[n-]/c(c(C)c1C=C)=C\c1[n-]c(c(CCC(=O)O)c1C)/C=c1\[n-]c(c(C)c1CCC(=O)O)=C2.[Sn+4]` [SnPP, tin protoporphyrin]?
Effect on the protective effects of CO ([2]; SnPP 50 μmol/kg s.c. 5 hr prior to CO, TNF-α/D-gal): significantly diminished; Effect on protection by the NO donor V-PYRRO/NO ([2]; TNF-α/D-gal with SnPP): abrogated; Effect of administration in the absence of TNF-α/D-gal ([2]; data not shown): no deleterious or protective effects
